Measured values taken from patent publication US10442803B2, “Tricyclic heterocycles as bet protein inhibitors” (Incyte Corporation, priority 2013, dated 2019).
Counter-ions that a name gives are not always drawn.

System: KMS.12.BM cells
Test: KMS.12.BM cell viability assay
Type: cell-based
Details: 72 h; KMS.12.BM human myeloma cells, 3 days, Cell Titer-GLO ATP quantitation; read-out: KMS cellular IC50
In short: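 IC50 derived from luminescent ATP quantitation (Cell Titer-GLO) of viable cells after 3-day compound treatment. KMS.12.BM human myeloma line seeded at 5000 cells/well in RPMI with 10% FBS.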

Cc1cc2c(cc(NC(C)C)c3nnc(C)n32)n1Cc1ccccc1 [Example 263, 6-Benzyl-N-isopropyl-1,7-dimethyl-6H-pyrrolo[2,3-e][1,2,4]triazolo[4,3-a]pyridin-4-amine]
IC50: 1000 to 10000 nM

Cc1cc2c(ccc3nnc(C)n32)n1Cc1cccc(Cl)c1 [Example 9, 6-(3-chlorobenzyl)-1,7-dimethyl-6H-pyrrolo[2,3-e][1,2,4]triazolo[4,3-a]pyridine]
IC50: ≤ 1000 nM

Cc1nnc2ccc3c(cc(-c4ccn(CCC#N)n4)n3Cc3ccccc3)n12 [Example 78, 3-[3-(6-benzyl-1-methyl-6H-pyrrolo[2,3-e][1,2,4]triazolo[4,3-a]pyridin-7-yl)-1H-pyrazol-1-yl]propanenitrile]
IC50: ≤ 1000 nM

Cc1nnc2ccc3c(cc(-c4ccn(C5(CC#N)CN(S(C)(=O)=O)C5)n4)n3Cc3cccc(Cl)c3)n12 [Example 107, [3-{3-[6-(3-chlorobenzyl)-1-methyl-6H-pyrrolo[2,3-e][1,2,4]triazolo[4,3-a]pyridin-7-yl]-1H-pyrazol-1-yl}-1-(methylsulfonyl)azetidin-3-yl]acetonitrile]
IC50: ≤ 1000 nM

Cc1cc2c(cc(NCCN)c3nnc(C)n32)n1Cc1ccccc1 [Example 258, N1-(6-benzyl-1,7-dimethyl-6H-pyrrolo[2,3-e][1,2,4]triazolo[4,3-a]pyridin-4-yl)ethane-1,2-diamine]
IC50: ≤ 1000 nM

Cc1cc2c(ccc3nnc(C)n32)n1Cc1cccc(CN2CCCC2)c1 [Example 45, 1,7-dimethyl-6-[3-(pyrrolidin-1-ylmethyl)benzyl]-6H-pyrrolo[2,3-e][1,2,4]triazolo[4,3-a]pyridine]
IC50: ≤ 1000 nM

Cc1cc2c(cc(Nc3ccn(C)n3)c3nnc(C)n32)n1Cc1ccccc1 [Example 202, 6-Benzyl-1,7-dimethyl-N-(1-methyl-1H-pyrazol-3-yl)-6H-pyrrolo[2,3-e][1,2,4]triazolo[4,3-a]pyridin-4-amine tris(trifluoroacetate) salt]
IC50: ≤ 1000 nM

CNc1cc2c(cc(C)n2Cc2ccccc2)n2c(C)nnc12 [Example 261, 6-Benzyl-N,1,7-trimethyl-6H-pyrrolo[2,3-e][1,2,4]triazolo[4,3-a]pyridin-4-amine]
IC50: ≤ 1000 nM

Cc1cc2c(cc(NC(N)=O)c3nnc(C)n32)n1Cc1cccc(F)c1F [Example 237, 1-(6-(2,3-Difluorobenzyl)-1,7-dimethyl-6H-pyrrolo[2,3-e][1,2,4]triazolo[4,3-a]pyridin-4-yl)urea]
IC50: ≤ 1000 nM

Cc1nnc2ccc3c(cc(C(=O)NCC(C)C)n3Cc3ccccc3)n12 [Example 125, 6-Benzyl-N-isobutyl-1-methyl-6H-pyrrolo[2,3-e][1,2,4]triazolo[4,3-a]pyridine-7-carboxamide trifluoroacetate]
IC50: ≤ 1000 nM

Cc1cc2c(cc(N[C@@H]3CCOC3)c3nnc(C)n32)n1Cc1ccccc1 [Example 147, 6-benzyl-1,7-dimethyl-N-[(3R)-tetrahydrofuran-3-yl]-6H-pyrrolo[2,3-e][1,2,4]triazolo[4,3-a]pyridin-4-amine]
IC50: 1000 to 10000 nM

Cc1cc2c(ccc3nnc(C)n32)n1Cc1cccc(CN(C)CCO)c1 [Example 37, 2-[{3-[(1,7-dimethyl-6H-pyrrolo[2,3-e][1,2,4]triazolo[4,3-a]pyridin-6-yl)methyl]benzyl}(methyl)amino]ethanol]
IC50: ≤ 1000 nM

Cc1nnc2ccc3c(cc(-c4ccn(C)n4)n3Cc3ccccc3)n12 [Example 76, 6-benzyl-1-methyl-7-(1-methyl-1H-pyrazol-3-yl)-6H-pyrrolo[2,3-e][1,2,4]triazolo[4,3-a]pyridine]
IC50: ≤ 1000 nM

CCOC(=O)N1CC(n2ccc(-c3cc4c(ccc5nnc(C)n54)n3Cc3cccc(Cl)c3)n2)C1 [Example 167, Ethyl 3-{3-[6-(3-chlorobenzyl)-1-methyl-6H-pyrrolo[2,3-e][1,2,4]triazolo[4,3-a]pyridin-7-yl]-1H-pyrazol-1-yl}azetidine-1-carboxylate trifluoroacetate salt]
IC50: ≤ 1000 nM

Cc1cc2c(cc(NCC3CCC3)c3nnc(C)n32)n1Cc1ccccc1 [Example 241, 6-Benzyl-N-(cyclobutylmethyl)-1,7-dimethyl-6H-pyrrolo[2,3-e][1,2,4]triazolo[4,3-a]pyridin-4-amine]
IC50: 1000 to 10000 nM

Cc1nnc2ccc3c(cc(-c4ccccn4)n3Cc3ccccc3)n12 [Example 68, 6-benzyl-1-methyl-7-pyridin-2-yl-6H-pyrrolo[2,3-e][1,2,4]triazolo[4,3-a]pyridine]
IC50: ≤ 1000 nM

Cc1cc2c(ccc3nnc(C)n32)n1Cc1cccc(O)c1 [Example 23, 3-[(1,7-dimethyl-6H-pyrrolo[2,3-e][1,2,4]triazolo[4,3-a]pyridin-6-yl)methyl]phenol]
IC50: ≤ 1000 nM

CCN1CC(n2ccc(-c3cc4c(ccc5nnc(C)n54)n3Cc3cccc(Cl)c3)n2)C1 [Example 160, 6-(3-Chlorobenzyl)-7-[1-(1-ethylazetidin-3-yl)-1H-pyrazol-3-yl]-1-methyl-6H-pyrrolo[2,3-e][1,2,4]triazolo[4,3-a]pyridine bis(trifluoroacetate) salt]
IC50: ≤ 1000 nM

Cc1nnc2ccc3c(cc(C#N)n3Cc3ccccc3)n12 [Example 227, 6-Benzyl-1-methyl-6H-pyrrolo[2,3-e][1,2,4]triazolo[4,3-a]pyridine-7-carbonitrile trifluoroacetate salt]
IC50: ≤ 1000 nM

Cc1cc2c(cc(NC(N)=O)c3nnc(C)n32)n1Cc1cccc(C(F)(F)F)c1 [Example 230, 1-(1,7-Dimethyl-6-(3-(trifluoromethyl)benzyl)-6H-pyrrolo[2,3-e][1,2,4]triazolo[4,3-a]pyridin-4-yl)urea]
IC50: ≤ 1000 nM

Cc1cc2c(cc(NC3CCN(S(C)(=O)=O)CC3)c3nnc(C)n32)n1Cc1ccccc1 [Example 211, 6-Benzyl-1,7-dimethyl-N-[1-(methylsulfonyl)piperidin-4-yl]-6H-pyrrolo[2,3-e][1,2,4]triazolo[4,3-a]pyridin-4-amine]
IC50: ≤ 1000 nM

Cc1nnc2ccc3c(cc(-c4ccn(CCC(=O)NC(C)(C)C)n4)n3Cc3cccc(Cl)c3)n12 [Example 176, N-(tert-Butyl)-3-{3-[6-(3-chlorobenzyl)-1-methyl-6H-pyrrolo[2,3-e][1,2,4]triazolo[4,3-a]pyridin-7-yl]-1H-pyrazol-1-yl}propanamide trifluoroacetate salt]
IC50: ≤ 1000 nM

Cc1nnc2ccc3c(cc(-c4ncco4)n3Cc3cc(Cl)cc(CN4CCC4)c3)n12 [Example 195, 6-[3-(Azetidin-1-ylmethyl)-5-chlorobenzyl]-1-methyl-7-(1,3-oxazol-2-yl)-6H-pyrrolo[2,3-e][1,2,4]triazolo[4,3-a]pyridine bis(trifluoroacetate) salt]
IC50: ≤ 1000 nM

Cc1cc2c(cc(NC3CCN(C)C3)c3nnc(C)n32)n1Cc1ccccc1 (racemic) [Example 145, 6-benzyl-1,7-dimethyl-N-(1-methylpyrrolidin-3-yl)-6H-pyrrolo[2,3-e][1,2,4]triazolo[4,3-a]pyridin-4-amine bis(trifluoroacetate) salt (racemic)]
IC50: ≤ 1000 nM

Cc1nnc2ccc3c(cc(-c4cn(CCN5CCOCC5)cn4)n3Cc3ccccc3)n12 [Example 75, 6-benzyl-1-methyl-7-[1-(2-morpholin-4-ylethyl)-1H-imidazol-4-yl]-6H-pyrrolo[2,3-e][1,2,4]triazolo[4,3-a]pyridine]
IC50: ≤ 1000 nM
